Experimental data taken from US11840521B2, “Modulators of Mas-related G-protein receptor X4 and related products and methods” (Escient Pharmaceuticals, Inc., priority 2019, dated 2023).
pIC50: −log10 of the molar value. Read-outs that look alike come from different tables or passages of the source.

Molecular target: MRGPRX4 (Homo sapiens, UniProt Q96LA9)
Experiment: MRGPR X4 antagonist activity, IP-One Gq HTRF assay in stably transfected HEK cells (versus agonist bilirubin, deoxycholic acid, conjugated bilirubin, urobilin, obeticholic acid or BAR502)
Type: cell-based
Design: expressed in transfected cells; host or cells: HEK cells, stably transfected
Method in brief: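 Stably transfected HEK cells expressing human MRGPR X4, seeded overnight, given compounds as 10-point 1:3 curves from 10 uM final top, incubated 1 h at 37° C then 30 min at room temperature. IP-1 measured by IP-One Gq HTRF. IC50 derived from the HTRF ratio.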

[1] = versus 10 μM Bilirubin agonist, HEK cells expressing human MRGPR X4, read-out: MRGPR4 Antagonist Activity
[2] = versus 10 μM Bilirubin agonist, read-out: IC50 (Bilirubin agonist)
[3] = versus 20 μM deoxycholic acid, read-out: IC50 (Deoxycholic Acid agonist)
[4] = versus 20 μM obeticholic acid, read-out: IC50 (Obeticholic Acid Agonist)
[5] = versus 50 μM urobilin, read-out: IC50 (Urobilin Agonist)
[6] = versus 100 μM conjugated bilirubin, read-out: IC50 (Conjugated Bilirubin Agonist)

Sequence of MRGPRX4 (Q96LA9 whole entry): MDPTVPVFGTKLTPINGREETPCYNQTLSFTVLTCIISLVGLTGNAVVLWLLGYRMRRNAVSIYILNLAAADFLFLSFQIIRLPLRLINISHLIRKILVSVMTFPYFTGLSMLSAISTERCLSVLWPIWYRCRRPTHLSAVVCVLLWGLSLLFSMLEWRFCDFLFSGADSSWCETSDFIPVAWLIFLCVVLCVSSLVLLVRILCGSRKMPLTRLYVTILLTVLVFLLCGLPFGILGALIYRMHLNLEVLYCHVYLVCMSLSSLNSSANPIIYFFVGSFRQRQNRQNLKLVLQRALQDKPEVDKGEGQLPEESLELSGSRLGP

| Structure (SMILES) | pIC50 [1] | also measured |
| --- | --- | --- |
| NCc1cccc(COc2ccc(Cl)cc2Cl)c1 [Compound 7-1, (3-((2,4-dichlorophenoxy)methyl)phenyl)methanamine] | 6.30 to 7.00 |  |
| Cc1ccc(COc2ccc(Cl)cc2Cl)cc1C(=O)O [Compound 8-1, 5-((2,4-dichlorophenoxy)methyl)-2-methylbenzoic acid] | < 5.60 |  |
| Cc1ccc(C(=O)O)cc1COc1ccc(Cl)cc1Cl [Compound 8-2] | 5.60 to 6.00 |  |
| O=C(O)c1cc(C2CC2)cc(COc2ccc(C(F)(F)F)cc2Cl)n1 [Compound 8-3] | > 7.00 |  |
| O=C(O)c1cc(COc2ccc(C(F)(F)F)cc2Cl)cc(-c2ccccc2)c1 [Compound 8-4] | 6.00 to 6.30 |  |
| O=C(O)c1cc(Br)cc(COc2ccc(C(F)(F)F)cc2Cl)n1 [Compound 9-1, 4-bromo-6-((2-chloro-4-(trifluoromethyl)phenoxy)methyl)picolinic acid] | > 7.00 |  |
| Cc1cc(C(F)(F)F)ccc1OCc1cc(F)cc(C(=O)O)c1 [Compound 9-2] | > 7.00 |  |
| O=C(O)c1cc(F)cc(COc2ccc3ccccc3c2)c1 [Compound 9-3] | > 7.00 |  |
| O=C(O)c1cccc(COc2ccc(C(F)(F)F)cn2)c1 [Compound 10-1, 3-(((5-(trifluoromethyl)pyridin-2-yl)oxy)methyl)benzoic acid] | 5.60 to 6.00 |  |
| O=C(O)c1cc(COc2ccc(C(F)(F)F)cc2Cl)cc(C2CC2)c1 [Compound 11-1, 3-((2-chloro-4-(trifluoromethyl)phenoxy)methyl)-5-cyclopropylbenzoic acid] | > 7.00 |  |
| O=C(O)c1cccc(CNc2ccc(Cl)cc2Cl)c1 [Compound 12-1, 3-(((2,4-dichlorophenyl)amino)methyl)benzoic acid] | 6.30 to 7.00 |  |
| O=C(O)c1cccc(CNc2ccc3ccccc3c2)c1 [Compound 12-2] | 6.00 to 6.30 |  |
| O=C(O)c1cccc(CNc2ccc(C(F)(F)F)cc2Cl)n1 [Compound 12-3] | > 7.00 |  |
| O=C(O)c1cccc(CNc2ccc(C(F)(F)F)cc2Cl)c1 [Compound 12-4] | > 7.00 |  |
| NC(=O)c1cccc(COc2cccc(Cl)c2Cl)c1 [Compound 13-1, 3-((2,3-dichlorophenoxy)methyl)benzamide] | < 5.60 |  |
| OCc1cccc(COc2ccc(Cl)cc2Cl)c1 [Compound 14-1, (3-((2,4-dichlorophenoxy)methyl)phenyl)methanol] | 5.60 to 6.00 |  |
| O=C(O)c1cccc(CSc2ccc(Cl)cc2Cl)c1 [Compound 15-1, 3-(((2,4-dichlorophenyl)thio)methyl)benzoic acid] | 6.30 to 7.00 |  |
| O=C(O)c1cccc(Oc2ccc(Cl)cc2Cl)c1 [Compound 16-1, 3-(2,4-dichlorophenoxy)benzoic acid] | 5.60 to 6.00 |  |
| O=C(O)c1cccc(Oc2ccc([N+](=O)[O-])cc2Cl)c1 [Compound 16-2] | < 5.60 |  |
| N#Cc1cccc(COc2ccc(C(F)(F)F)cc2Cl)c1 [Compound 17-1, 3-((2-chloro-4-(trifluoromethyl)phenoxy)methyl)benzonitrile] | 6.30 to 7.00 |  |
| FC(F)(F)c1ccc(OCc2cccc(-c3nnn[nH]3)c2)cc1Cl [Compound 17-2] | > 7.00 |  |

| Structure (SMILES) | pIC50 [1] | also measured |
| --- | --- | --- |
| FC(F)(F)c1cc(Cl)ccc1OCc1cccc(-c2nnn[nH]2)c1 [Compound 17-3] | 6.30 to 7.00 |  |
| Clc1ccc(OCc2cccc(-c3nnn[nH]3)c2)c(Cl)c1Cl [Compound 17-4] | > 7.00 | pIC50 [2]: 8.30; pIC50 [3]: 8.22; pIC50 [4]: 8.10; pIC50 [5]: 8.22; pIC50 [6]: 8.15 |
| c1cc(COc2ccc3ccccc3c2)cc(-c2nnn[nH]2)c1 [Compound 17-5] | > 7.00 |  |
| FC(F)(F)c1ccc(OCc2cccc(-c3nnn[nH]3)n2)c(Cl)c1 [Compound 17-6] | > 7.00 |  |
| Fc1ccc(OCc2cccc(-c3nnn[nH]3)c2)c(Cl)c1 [Compound 17-7] | > 7.00 |  |
| FC(F)(F)Oc1ccc(OCc2cccc(-c3nnn[nH]3)c2)c(Cl)c1 [Compound 17-8] | > 7.00 |  |
| Fc1cc(OCc2cccc(-c3nnn[nH]3)c2)ccc1C(F)(F)F [Compound 17-9] | > 7.00 |  |
| FC(F)(F)Oc1ccc(OCc2cccc(-c3nnn[nH]3)c2)cc1Cl [Compound 17-10] | > 7.00 |  |
| Cc1cc(C(F)(F)F)ccc1OCc1cccc(-c2nnn[nH]2)c1 [Compound 17-11] | > 7.00 |  |
| FC(F)(F)c1ccc(OCc2ccc(-c3nnn[nH]3)cc2)c(Cl)c1 [Compound 17-12] | 6.00 to 6.30 |  |
| Cc1cc(Cl)ccc1OCc1cccc(-c2nnn[nH]2)c1 [Compound 17-13] | > 7.00 |  |
| Fc1cc(COc2ccc(C(F)(F)F)cc2Cl)cc(-c2nnn[nH]2)c1 [Compound 17-14] | > 7.00 |  |
| Fc1c(COc2ccc(C(F)(F)F)cc2Cl)cccc1-c1nnn[nH]1 [Compound 17-15] | > 7.00 |  |
| Fc1ccc(COc2ccc(C(F)(F)F)cc2Cl)cc1-c1nnn[nH]1 [Compound 17-16] | > 7.00 |  |
| N#Cc1cc(COc2ccc(C(F)(F)F)cc2Cl)cc(C(=O)O)c1 [Compound 32-1, 3-((2-chloro-4-(trifluoromethyl)phenoxy)methyl)-5-cyanobenzoic acid] | > 7.00 | pIC50 [2]: 8.22; pIC50 [3]: 8.00; pIC50 [4]: 8.52; pIC50 [5]: 8.10; pIC50 [6]: 8.15 |
| Cc1cc(C(F)(F)F)ccc1OCc1cc(C#N)cc(C(=O)O)c1 [Compound 32-2] | > 7.00 | IC50 (read-out: IC50 (10 μM BAR502) nM, MRGPRX4 antagonists versus 10 μM BAR502 agonist): 17 nM |
| N#Cc1cc(COc2ccc(Cl)c(Cl)c2Cl)cc(C(=O)O)c1 [Compound 32-3] | > 7.00 |  |
| N#Cc1cc(COc2ccc(OC(F)(F)F)cc2Cl)cc(C(=O)O)c1 [Compound 32-4] | > 7.00 |  |
| N#Cc1cc(COc2ccc(C(F)(F)F)c(Cl)c2)cc(C(=O)O)c1 [Compound 32-5] | > 7.00 |  |
| O=C(O)c1cccc(COc2ccccc2C(F)F)c1 [Compound 33-1, 3-((2-(difluoromethyl)phenoxy)methyl)benzoic acid] | < 5.60 |  |
| O=C(O)c1cccc(COc2ccc(C(F)F)cc2)c1 [Compound 33-2] | 6.30 to 7.00 |  |

| Structure (SMILES) | pIC50 [1] | also measured |
| --- | --- | --- |
| O=C(O)c1cccc(COc2ccc(C(F)F)cc2Cl)c1 [Compound 33-3] | > 7.00 |  |
| O=C(O)c1cccc(COc2ccc(C(F)F)cc2F)c1 [Compound 33-4] | 6.30 to 7.00 |  |
| O=C(O)c1cccc(COc2ccc(C(F)(F)F)cc2C2CC2)c1 [Compound 34-1, 3-((2-cyclopropyl-4-(trifluoromethyl)phenoxy)methyl)benzoic acid] | 6.00 to 6.30 |  |
| O=C(O)c1cccc(COc2ncc(C(F)(F)F)cc2Cl)c1 [Compound 35-1, 3-(((3-chloro-5-(trifluoromethyl)pyridin-2-yl)oxy)methyl)benzoic acid] | 6.30 to 7.00 |  |
| C#Cc1cc(C(F)(F)F)ccc1OCc1cccc(C(=O)O)c1F [Compound 36-1, 3-((2-ethynyl-4-(trifluoromethyl)phenoxy)methyl)-2-fluorobenzoic acid] | 6.00 to 6.30 |  |
| CCc1c(COc2ccc(C(F)(F)F)cc2Cl)cccc1C(=O)O [Compound 37-1, 3-((2-chloro-4-(trifluoromethyl)phenoxy)methyl)-2-ethylbenzoic acid] | 5.60 to 6.00 |  |
| CN(C)c1cc(COc2ccc(C(F)(F)F)cc2Cl)cc(C(=O)O)c1 [Compound 38-1, 3-((2-chloro-4-(trifluoromethyl)phenoxy)methyl)-5-(dimethylamino)benzoic acid] | 6.30 to 7.00 |  |
| CCCc1cc(COc2ccc(C(F)(F)F)cc2Cl)nc(C(=O)O)c1 [Compound 39-1, 6-((2-chloro-4-(trifluoromethyl)phenoxy)methyl)-4-propylpicolinic acid] | > 7.00 |  |
| O=S(=O)(O)c1cccc(COc2ccc(C(F)(F)F)cc2Cl)c1 [Compound 40-1, 3-((2-chloro-4-(trifluoromethyl)phenoxy)methyl)benzenesulfonic acid] | 6.00 to 6.30 |  |
| Cc1cc(COc2ccc3ccccc3c2)nc(C(=O)O)c1 [Compound 41-1, 4-methyl-6-((naphthalen-2-yloxy)methyl)picolinic acid] | > 7.00 |  |
| Cc1cc(COc2ccc(C(F)(F)F)cc2Cl)nc(C(=O)O)c1 [Compound 41-2] | > 7.00 |  |
| CCc1cc(COc2ccc3ccccc3c2)nc(C(=O)O)c1 [Compound 42-1, 4-ethyl-6-((naphthalen-2-yloxy)methyl)picolinic acid] | > 7.00 |  |
| CCc1cc(COc2ccc(Cl)c(Cl)c2Cl)nc(C(=O)O)c1 [Compound 42-2] | > 7.00 |  |
| N#Cc1cc(COc2ccc(C(F)(F)F)cc2Cl)nc(C(=O)O)c1 [Compound 43-1, 6-((2-chloro-4-(trifluoromethyl)phenoxy)methyl)-4-cyano-pyridine-2-carboxylic acid] | > 7.00 |  |
| NC(=O)c1cccc(COc2ccc(C(F)(F)F)cc2Cl)c1 [Compound 45-1, 3-((2-chloro-4-(trifluoromethyl)phenoxy)methyl)benzamide] | 6.30 to 7.00 |  |
| FC(F)(F)c1ccc(OCc2cccc(-c3nc[nH]n3)c2)c(Cl)c1 [Compound 45-2, 3-(3-((2-chloro-4-(trifluoromethyl)phenoxy)methyl)phenyl)-1H-1,2,4-triazole] | 6.00 to 6.30 |  |
| FC(F)(F)c1ccc(OCc2cccc(-c3ncc[nH]3)c2)c(Cl)c1 [Compound 46-1, 2-(3-((2-chloro-4-(trifluoromethyl)phenoxy)methyl)phenyl)-1H-imidazole] | 6.30 to 7.00 |  |
| FC(F)(F)c1ccc(OCc2cccc(-c3cnc[nH]3)c2)c(Cl)c1 [Compound 47-1, 5-(3-((2-chloro-4-(trifluoromethyl)phenoxy)methyl)phenyl)-1H-imidazole] | 6.00 to 6.30 |  |
| FC(F)(F)c1ccc(OCc2cccc(-c3cn[nH]n3)c2)c(Cl)c1 [Compound 48-1, 4-(3-((2-chloro-4-(trifluoromethyl)phenoxy)methyl)phenyl)-2H-1,2,3-triazole] | 5.60 to 6.00 |  |
